In US6972287B1, “Method of inhibiting amyloid protein aggregation and imaging amyloid deposits” (Pfizer Inc., priority 1999, dated 2005):
“And” between values parts separate entries of the source, which are not always exact repeats. Identical values can stand only once.

What was measured:
[1] = biological target: T1, Aβ(1-40) (Homo sapiens, UniProt P05067); test: BASSR (Beta-Amyloid Self-Seeding Radioassay), inhibitors of self-seeded amyloid fibril growth; type: biochemical; conditions: 30 μM soluble Aβ(1-40) + 125I-labeled Aβ(1-40), 37° C., 3 to 5 hours; replicate values; letter = synthetic lot; ppt = precipitate; V-shaped = inhibition followed by precipitation
T1 construct: […]; purchased Bachem, Torrance, Calif
T1 sequence (P05067 672-711 limits assumed): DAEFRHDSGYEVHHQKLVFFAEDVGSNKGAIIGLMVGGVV
Outline: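 Self-seeded growth of ^125I-labeled Aβ(1-40) fibrils in 50 mM sodium phosphate pH 7.5, 100 mM NaCl, 0.02% NaN3, 1 M urea; compound (3-fold dilutions from 100 μM final) preincubated 10 min on ice, then 3–5 h at 37° C. Fibrils collected by vacuum filtration on 0.2 μm filters and counted for radioactivity.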

[2] = biological target: T1, Aβ(1-40); test: BASST (Beta-Amyloid Self-Seeding, Thioflavin T), inhibitors of self-seeded amyloid fibril growth; type: biochemical; conditions: 30 μM soluble Aβ(1-40), 37° C., 3 to 5 hours, thioflavin T fluorescence; replicate values; letter = synthetic lot; read-out: BASST (IC50 = μM)
Outline: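 Self-seeded Aβ(1-40) fibril growth was run in 50 mM sodium phosphate pH 7.5, 100 mM NaCl, 0.02% NaN3, 1 M urea. Compounds were tested in 3-fold serial dilutions (top 100 μM final): 10 min on ice, then 3–5 h at 37 °C. Fibrils were read by 5 μM thioflavin T fluorescence (ex 440/em 485 nm).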

[3] = biological target: T2, Aβ (1-42) (Homo sapiens, UniProt P05067); test: BATYM assay (Aβ (1-42) aggregation, Thioflavin T fluorescence); type: biochemical; conditions: Aβ 1-42 final concentration 100 μM, 37° C., 1 day, letter = synthetic lot
T2 construct: Required Aβ (1-42) (California Peptide) was dried from its hexafluoroisopropanol (HFIP) stock solution; purchased California Peptide
T2 sequence (P05067 672-713 limits assumed): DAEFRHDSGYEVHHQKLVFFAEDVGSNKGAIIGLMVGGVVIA
Outline: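 Aβ (1-42) (100 μM final, PBS pH 7.4 from DMSO) incubated with compound at 37° C. for 1 day. Aggregation read by ThT (30 μM, glycine-NaOH pH 8.5) fluorescence, ex 440/em 485 nm; inhibition as fluorescence reduction corrected for compound-alone signal, IC50 by curve fitting from two experiments in triplicate.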

[4] = biological target: T3, Aβ (1-40) peptide (Homo sapiens, UniProt P05067); test: BAPA (Beta-Amyloid Peptide Aggregation, pH 6.0, filtration); type: biochemical; conditions: Aβ (1-40) 33 μM, pH 6.0, 2 to 4 hours at room temperature; replicate values; letter = synthetic lot
T3 construct: 10 μL 0.5 mg/mL Aβ (1-40) peptide in 20% HFIP
T3 sequence (P05067 672-711 limits assumed): as the sequence (P05067 672-711 limits assumed) above
Outline: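 Aggregation of human Aβ (1-40) peptide was measured in an endpoint filtration assay. The peptide was first reduced to monomer with hexafluoroisopropanol (HFIP), then used at 33 μM so it would aggregate at pH 6.0, and incubated for 2 to 4 hours at room temperature. Filter plates were washed with 100 μL phosphate buffer, impregnated with Meltilex, and counted on a Microbeta counter with background correction.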

IC50 [1]	IC50 [2] [µM]	IC50 [3] [µM]	IC50 [4] [µM]	melting point [°C]	Compound
> 100 µM	5	42.3	27	115 to 117	CN(C)c1cccc(CCCc2ccc(Nc3ccccc3C(=O)O)cc2)c1 [Example 28, 2-{4-[3-(3-Dimethylaminophenyl)propyl]phenylamino}benzoic acid]
> 100 µM	4	38.1	30	133	CCNc1ccc(CCCc2ccc(Nc3ccccc3C(=O)O)cc2)cc1 [Example 29, 2-{4-[3-(4-Ethylaminophenyl)propyl]phenylamino}benzoic acid]
> 100 µM	0.8	30.2	25	189 to 193	CCCN(CCC)c1cccc(CCc2ccc(Nc3ccccc3C(=O)O)cc2)c1.Cl [Example 37, 2-{4-[2-(3-Dipropylaminophenyl)ethyl]phenylamino}benzoic acid monohydrochloride]
20 µM and 10 µM	3	23.4	184	175 to 180	CCCCN(CCCC)c1cccc(CCc2ccc(Nc3ccccc3C(=O)O)cc2)c1.Cl [Example 38, 2-{4-[2-(3-Dibutylaminophenyl)ethyl]phenylamino}benzoic acid monohydrochloride]
> 100 µM	3	> 100	53	140 to 145	CC(=O)Nc1cccc(CCCc2ccc(Nc3ccccc3C(=O)O)cc2)c1 [Example 40, 2-{4-[3-(3-Acetylaminophenyl)propyl]phenylamino}benzoic acid]
> 100 µM	5	49.7	42	166 to 171	CCN(CC)c1cccc(CCc2ccc(Nc3ccccc3C(=O)O)cc2)c1.Cl [Example 41, 2-{4-[2-(3-Diethylaminophenyl)ethyl]phenylamino}benzoic acid monohydrochloride]
> 100 µM	2	55.6	30	187 to 193	Cl.O=C(O)c1ccccc1Nc1ccc(CCc2cccc(N3CCCCC3)c2)cc1 [Example 42, 2-{4-[2-(3-Piperidin-1-ylphenyl)ethyl]phenylamino}benzoic acid monohydrochloride]
12 µM	2	5.1	101	222 to 224	CCCCN1CCCc2cc(C=C3SC(=S)N(CC(=O)O)C3=O)ccc21 [Example 55, {5-[(1-Butyl-1,2,3,4-tetrahydro-6-quinolyl)methylidene]-4-oxo-2-thioxothiazolidin-3-yl}acetic acid]
> 100 µM	3	11.5	30	> 250	CCCCN1CCc2cc(C=C3SC(=S)N(CC(=O)O)C3=O)ccc21 [Example 56, {5-[(1-Butyl-2,3-dihydro-1H-indol-5-yl)methylidene]-4-oxo-2-thioxothiazolidin-3-yl}acetic acid]

Further lines, the molecule ahead of its results:

Compound	IC50 [1]	IC50 [2] [µM]	IC50 [3] [µM]	IC50 [4] [µM]	melting point [°C]
O=C(O)c1ccccc1Nc1ccc(CCCc2cccc([N+](=O)[O-])c2)cc1 [Example 21, 2-{4-[3-(3-Nitrophenyl)propyl]phenylamino}benzoic acid]	3 µM	4	62.7	26	164 to 167
Nc1ccc(CCc2ccc(Nc3ccccc3C(=O)O)cc2)cc1 [Example 24]	> 100 µM	20	> 100	91	198 to 201
CCCN(CCC)c1ccc(CCc2ccc(Nc3ccccc3C(=O)O)cc2)cc1.Cl [Example 25, 2-{4-[2-(4-Dipropylaminophenyl)ethyl]phenylamino}benzoic acid monohydrochloride]	> 100 µM	4	21.1	47	176 to 177
O=C(O)c1ccccc1Nc1ccc(CCc2cccc(N(Cc3ccccc3)Cc3ccccc3)c2)cc1 [Example 31, 2-{4-[2-(3-Dibenzylaminophenyl)ethyl]phenylamino}benzoic acid]	> 100 µM	1	22.6	86	95.5 to 97.5
Nc1cccc(CCc2ccc(Nc3ccccc3C(=O)O)cc2)c1 [Example 33, 2-{4-[2-(3-Aminophenyl)ethyl]phenylamino}benzoic acid]	> 100 µM	> 100	> 100	> 10	182 to 184
CC(=O)Nc1cccc(CCc2ccc(Nc3ccccc3C(=O)O)cc2)c1 [Example 36, 2-{4-[2-(3-Acetylaminopheny)ethyl]phenylamino}benzoic acid]	> 100 µM	> 100	> 100	149	213 to 215
CC(=O)Nc1ccc(CCCc2ccc(Nc3ccccc3C(=O)O)cc2)cc1 [Example 39, 2-{4-[3-(4-Acetylaminophenyl)propyl]phenylamino}benzoic acid]	> 100 µM	20	> 100	21	176 to 178
Cc1ccc(Nc2ccc(CCCc3ccc(Cl)c(Cl)c3)cc2)c(C(=O)O)c1 [Example 59, 2-{4-[3-(3,4-Dichloro-phenyl)propyl]phenylamino}-5-methyl-benzoic acid]	> 100 µM	> 100	> 100	3	98 to 99
CS(=O)(=O)NC(=O)c1ccccc1Nc1ccc(CCCc2ccc(Cl)c(Cl)c2)cc1 [Example 60, N-(2-{4-[3-(3,4-Dichloro-phenyl)-propyl]-phenylamino}-benzoyl)-methanesulfonamide]	> 100 µM	3	40.7	8	53 to 61
O=C(O)c1cc([N+](=O)[O-])ccc1Nc1ccc(CCc2cccc(C(F)(F)F)c2Cl)cc1 [Example 63]	15 µM (2×) and 18 µM	1	9.43	45	207 to 209
Nc1ccc(Nc2ccc(CCc3ccc(Cl)c(Cl)c3)cc2)c(C(=O)O)c1 [Example 64, 5-Amino-2-{4-[2-(3,4-Dichloro-phenyl)-ethyl]-phenylamino}-benzoic acid]	> 100 µM	5	35	> 100	137 to 142
O=C(O)c1cc([N+](=O)[O-])ccc1Nc1ccc(CCc2ccccc2)cc1 [Example 65, 5-Nitro-2-(4-phenethyl-phenylamino)-benzoic acid]	60 µM and 80 µM	1.5	15.9	> 100	198 to 202
O=C(O)c1ccccc1Nc1ccc(CCc2ccc(F)c(C(F)(F)F)c2)cc1 [Example 66, 2-{4-[2-(4-Fluoro-3-trifluoromethyl-phenyl)-ethyl]-phenylamino}-benzoic acid]	> 100 µM	2.1	50.1	> 100	148 to 150
O=C(O)c1cc([N+](=O)[O-])ccc1Nc1ccc(CCc2ccc(F)c(F)c2)cc1 [Example 67, 2-{4-[2-(3,4-Difluoro-phenyl)-ethyl]-phenylamino}-5-nitro-benzoic acid]	41 µM	4	13.3	> 60	203 to 208
O=C(O)c1cc([N+](=O)[O-])ccc1Nc1ccc(CCc2ccc(F)c(C(F)(F)F)c2)cc1 [Example 69, 2-{4-[2-(4-Fluoro-3-trifluoromethyl-phenyl)-ethyl]-phenylamino}-5-nitro-benzoic acid]	2 µM and 3.5 µM	0.8	11.7	58	190 to 193
O=C(O)c1ccccc1Nc1ccc(CCc2ccccc2)cc1 [Example 70, 2-(4-Phenethyl-phenylamino)-benzoic acid]	20 µM	10	> 100	65	173 to 182
